According to ChEMBL document CHEMBL1201862, “PubChem BioAssay data set” (2004):
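In this assay, cells in 96-well plates receive the compound at five concentrations for 48 hours. Endpoints are linearly interpolated between the surrounding concentrations. GI50 is the concentration that inhibits growth by half.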 Activity calls are given as the source filed them. Cut-off read from the data, not from the text of the source: active = GI50 up to about 1.1 µM and inactive = higher.

Legend:
Experiment in all cases: NCI tumour cell line growth inhibition, 48 h
OVCAR-8 = tested on: OVCAR-8
RXF 393 = tested on: RXF 393
TK-10 = tested on: TK-10
EKVX = tested on: EKVX
MDA-MB-231 = tested on: MDA-MB-231
PC-3 = tested on: PC-3
M14 = tested on: M14
UACC-62 = tested on: UACC-62
786-0 = tested on: 786-0
BT-549 = tested on: BT-549
UACC-257 = tested on: UACC-257
OVCAR-4 = tested on: OVCAR-4
T47D = tested on: T47D
ACHN = tested on: ACHN
SK-MEL-28 = tested on: SK-MEL-28
CCRF-CEM = tested on: CCRF-CEM
NCI-H23 = tested on: NCI-H23
DU-145 = tested on: DU-145
MDA-N = tested on: MDA-N
HOP-92 = tested on: HOP-92

Measured: GI50

O=C(/C=C/c1ccc(O)cc1)NCCc1ccc(O)cc1 [N-P-COUMAROYL TYRAMINE]
inactive: OVCAR-8 > 12.5 µM | RXF 393 > 12.5 µM | TK-10 3.72 µM | EKVX 3.05 µM | MDA-MB-231 > 12.5 µM | PC-3 8.57 µM | M14 > 12.5 µM | UACC-62 7.41 µM | 786-0 > 12.5 µM | BT-549 7.53 µM | UACC-257 > 12.5 µM | OVCAR-4 8.63 µM | T47D > 12.5 µM | ACHN 3.49 µM | SK-MEL-28 > 12.5 µM | CCRF-CEM 2.99 µM | NCI-H23 7.16 µM | DU-145 12 µM | MDA-N > 12.5 µM | HOP-92 5.14 µM
